Columns and labels:
DNA = details: Isaacs et al., NCI Monograph 66:21 (1984); cited from earlier work
platelets [1] = experiment: Platelet aggregation (ADP and collagen), aggregometer; format: cell-based, human; details: 100 μM compound, 5 Joules/cm^2, 5 days storage; FIG. 21B
Protocol: To measure the effects of the present compounds and methods of decontamination on platelet function using these four indicators, four samples were prepared for each compound tested, two control samples and two containing compound. Three units of human platelets were obtained from the Sacramento Blood Center, Sacramento, Calif. These were each transferred under sterile conditions to 50 ml centrifuge tubes, then aliquots of each unit were transferred into a second set of 50 ml sterile centrifuge tubes. To each centrifuge tube containing platelet concentrate (PC), an aliquot of compound stock was added to reach a final concentration of 100 μM of compound. […] The samples were pipetted gently up and down to mix. Then aliquots (either 3 ml or 8 ml) of each sample was transferred to two sterile Teflon™ Medi-bags™ (American Fluoroseal Co., Silver Springs, Md.) (presently owned by The West Company, Lionville, Pa.). Samples were treated in one of two different sized bags, having either 3 ml or 8 ml capacity. […] For each compound tested, two control samples without compound were prepared by again removing aliquots of platelet concentrate (17 ml if using an 8 ml bag, 4 ml if using a 3 ml bag) from the same one of the first set of 50 ml centrifuge tubes from which the compound sample was drawn, and dividing into Medibags, as before. […]

platelets [2] = experiment: S-59 uptake by platelets and effect of pre-incubation on adsorption kinetics (Example 23); format: in vitro ADME, human; details: FIG. 25A
Protocol: As discussed previously, S-59 uptake by platelets can occur over a period of several hours before saturation occurs. FIG. 25A graphically depicts S-59 (Co=50 μM) uptake by platelets over time (top) and S-59 release by platelets over time (bottom). As shown in the top graph, S-59 equilibrium is achieved at approximately two hours.
This example is directed to the question of whether partitioning of S-59 into platelets has a significant effect on adsorption kinetics. The adsorption kinetics of PC pre-incubated with S-59 for 24 hours prior to adsorption were compared to adsorption kinetics in PC without a pre-incubation period. […] Samples of PC were removed at various time points and analyzed for levels of residual S-59.

[3] = Batch adsorption of 3H-S-59 and photoproducts from illuminated PC, residual radioactivity (Table F); format: physicochemical
Protocol: The removal of residual S-59 and S-59 photoproducts from illuminated PC by batch adsorption was investigated. […] Two separate platelet units were treated for each adsorbent; one unit was agitated for 3 hours before the platelets were separated from the adsorbent and transferred to another bag, and the other platelet unit was left in contact with the adsorbent for 4 days. Samples were removed from the units before treatment, after 3 hours of contact with the adsorbent, and on day 4.

[4] = HPLC of residual S-59 and photoproducts after RD containing Dowex XUS-43493 (Table N); format: physicochemical
Protocol: […] The unbound photoproducts can be monitored and quantified using a standard HPLC assay.
Samples were prepared for HPLC analysis according to the general procedure described in Example 39, infra. Briefly, the assay involved an initial sample preparation which lyses the platelets and solubilizes the S-59 and photoproducts. The supernatant from the sample preparation was then analyzed on a C-18 reverse phase column with a gradient of increasing methanol in KH2PO4 buffer. The major peaks were detected by optical absorbance.
Following illumination with 3.0 J/cm^2 UVA of a PC to which 15.2 mg S-59 had been added, the treated PC was incubated with the RD (contained within a PL 2410 Plastic container, Baxter) for 8 hours. Samples of the treated PC were then taken and subjected to HPLC for detection of residual S-59 and S-59 photoproducts. […] The Limit of Quantitation (LOQ) for the HPLC assay was 0.3 μM S-59.
The data described above indicate that the levels of residual photoproducts D and E are higher than levels of residual S-59 even thought the initial levels of D and E in the illuminated PC were much lower than S-59. […] The PC was assayed for unbound photoproducts using the HPLC assay discussed above, which quantifies the photoproducts present both within the platelets and in the plasma/PAS III mixture. […]

SMILES | DNA base pairs per AMT adduct (up to 1 adduct per) (DNA) [DNA base pairs] | reduction in platelet aggregation from the day 1 control (platelets [1]) | time to S-59 uptake equilibrium in platelets (platelets [2]) | counts as 3H exchanged water ([3]; 3H-S-59, illuminated PC) | counts associated with plasma macromolecules ([3]; 3H-S-59, illuminated PC) | counts associated with platelet macromolecules ([3]; 3H-S-59, illuminated PC) | non-adsorbed radioactivity ([3]; 3H-S-59, illuminated PC treated with adsorbent for 4 days) | Concentration Remaining (Average ± S.D.) ([4]; PC with 15.2 mg S-59, 3.0 J/cm^2 UVA, incubated 8 hours with RD containing Dowex XUS-43493, LOQ 0.3 μM) [nM] | initial 15.2 mg of S-59 removed from PCs ([4]; following illumination and incubation with the RD)
Cc1oc2c(C)c3oc(=O)cc(C)c3cc2c1CN [AMT, 4′-Aminomethyl-4,5′,8-trimethylpsoralen, reference compound] | 3.5 |  |  |  |  |  |  |  | 
Cc1oc2c(C)c3oc(=O)cc(C)c3cc2c1COCCN [Compound 2, 4′-(4-amino-2-oxa)butyl-4,5′,8-trimethylpsoralen] |  | approximately 8% | approximately two | about 10% | about 18% | about 15% | 36-37% | 270 ± 50 | greater than 99%
